Measurements reported in US12509451B2, “Heteroaryl amide inhibitors of CD38” (NAPA THERAPEUTICS LTD., priority 2020, dated 2025).

Experiments:
CD38 [1] = target: T1, CD38 (Mus musculus, UniProt P56528); test: In vivo efficacy against CD38 in obese mice, acute oral administration, liver NAD+ metabolites
T1 construct: aged mice (male C57BL6/J, 22 months old) were fasted for 4 hr; from tissue; host or cells: C57BL6/J mice (aged, DIO obese or LPS-challenged); liver, spleen, plasma
T1 sequence (P56528 1-304): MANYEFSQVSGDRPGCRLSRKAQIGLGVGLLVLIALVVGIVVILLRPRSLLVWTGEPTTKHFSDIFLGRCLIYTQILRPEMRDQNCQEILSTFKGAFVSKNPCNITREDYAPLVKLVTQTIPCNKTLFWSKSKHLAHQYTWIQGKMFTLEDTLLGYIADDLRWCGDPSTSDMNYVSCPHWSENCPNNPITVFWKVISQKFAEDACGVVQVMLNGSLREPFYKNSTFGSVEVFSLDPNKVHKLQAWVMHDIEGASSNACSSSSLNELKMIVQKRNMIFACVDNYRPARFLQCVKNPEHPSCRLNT

CD38 [2] = target: T1, CD38; test: In vivo efficacy against CD38 in aged mice, BID for 5 days, liver NAD+ metabolites; settings: 3 hr post-dosing
Description: (§1) The in vivo efficacy of Compound 32 against the human CD38 enzyme was tested in aged mice after oral administration and determined by mass spec (MS) analysis of NAD+ metabolites levels in liver tissue. The two main CD38 substrates, NAD+ and NMN, and the 2 main byproducts of the CD38 enzymatic reaction, NAM and ADPR, were measured.
(§2) Compound 32 was administered to aged mice (male DIO C57BL6/J, 19-22 months old) via oral gavage at a concentration of 3 mg/kg and 10 mg/kg BID for 5 days. At day 5, mice were humanely euthanized for liver tissue harvesting 3 hr post-dosing. A vehicle control (DMSO: Solutol HS 15: 80% Captisol (20% in water)(5:15:80 v/v)) was included to assess baseline NAD+ metabolites levels.
(§3) The procedure for tissue sample preparation and UPLC-MS/MS methods were adapted from Trammell et al. (2013) Compu. Struct. Biotechnol. J. […] (https://www.ncbi.nlm.nih.gov/pmc/articles/PMC3962138/). Frozen liver tissue was pulverized and resuspended in the extraction buffer (3:1 ethanol:10 mM aq. HEPES, pH 7.1). The samples were vortexed, sonicated briefly in a bath sonicator, and shaken at 55° C. for 3 min at 1,200 rpm. Samples were then centrifuged at 16,000×g for 10 min at 4° C., and the supernatant was dried by speedvac. The dried pellet was resuspended in 97% 10 mM ammonium acetate/3% acetonitrile, centrifuged at 16,000×g for 10 min at 4° C. and 2 μL was injected for LCMS analysis.
(§4) The UPLC-MS/MS analysis to measure NAD+ metabolites was performed using a Vanquish UHPLC system and a Q Exactive Orbitrap mass spectrometer with H-ESI ion source both from Thermo Scientific. UPLC separation was performed on a Hypercarb (2.1×100 mm, 5 μm particle size, Thermo) column following the method described in Trammell et al. (2013). Acquisition was carried out in positive ion, Parallel Reaction Monitoring (PRM) mode and targeted […] (t-SIM). The Thermo Xcalibur QualBrowser system (version 4.2.47) and Freestyle (version 1.8.51.0) softwares was used for the data processing. For relative fold change, peak areas were normalized with respective internal standards, normalized to weight of the tissue sample used, and calculated as fold change relative at 0 h timepoint/vehicle group.
as §1, with “39” for “32”, “spec” for “spec (MS)”
as §2, with “39” for “32”, “of” for “of 3 mg/kg and”

CD38 [3] = target: T1, CD38; test: In vivo efficacy against CD38 in obese mice, chronic oral administration 49 days, liver NAD+ metabolites; settings: 10 mg/kg BID oral, 4 hr post-dosing
Description: as §1, with “obese” for “aged”
(§5) Obese mice (male DIO C57BL6/J, 65 weeks old) treated for 49 days with compound 32 via oral gavage at a concentration of 10 mg/kg BID. On day 49, mice were humanely euthanized for liver tissue harvesting at 4 hr post-dosing. A vehicle control (1% Methylcellulose) was included to assess baseline NAD+ metabolites levels.
as §3, §4
as §1, with “39” for “32”, “obese” for “aged”, “spec” for “spec (MS)”
as §5, with “39” for “32”

[4] = single 10 mg/kg oral dose, 1 hour post administration
[5] = single 1 mg/kg and 10 mg/kg oral dose

With `O=C(Nc1ccnc(C(F)(F)F)c1)c1cc(OC2CC2)cc(-n2ccnc2)n1` [Compound 32, 4-cyclopropoxy-6-(1H-imidazol-1-yl)-N-(2-(trifluoromethyl)pyridin-4-yl)picolinamide] the “ADPR levels in liver” value (CD38 [1]; single 3 mg/kg oral dose) was “decrease”, the “NAD+ levels in liver” value (CD38 [1]; single 3 mg/kg oral dose) was “increase” and the “NAM levels in liver” value (CD38 [1]; single 3 mg/kg oral dose) was “decrease”. For the same molecule, the “NMN levels in liver” value (CD38 [1]; single 3 mg/kg oral dose) was “increase”, the “ADPR levels in liver” value (CD38 [1]; [4]) was “decrease” and the “NAD+ levels in liver” value (CD38 [1]; [4]) was “remarkably increase”. For the same molecule, the “NAM levels in liver” value (CD38 [1]; [4]) was “decrease”, the “NMN levels in liver” value (CD38 [1]; [4]) was “remarkably increase” and the “ADPR levels in liver” value (CD38 [2]; 3 mg/kg and 10 mg/kg BID oral) was “decrease”. The “NAD+ levels in liver” value (CD38 [2]; 3 mg/kg and 10 mg/kg BID oral) was “significantly increase”, the “NAM levels in liver” value (CD38 [2]; 3 mg/kg and 10 mg/kg BID oral) was “decrease” and the “NMN levels in liver” value (CD38 [2]; 3 mg/kg and 10 mg/kg BID oral) was “significantly increase”. The “ADPR levels in liver” value (CD38 [3]) was “significantly decrease” and the “NAM levels in liver” value (CD38 [3]) was “significantly decrease”.

In the case of `COCCOc1cc(C(=O)Nc2ccnc(C(F)(F)F)c2)nc(-n2ccnc2)n1` [Compound 39, 2-(1H-imidazol-1-yl)-6-(2-methoxyethoxy)-N-(2-(trifluoromethyl)pyridin-4-yl)pyrimidine-4-carboxamide], the “ADPR levels in liver” value (CD38 [1]; [5]) is reported as “decrease”, the “NAD+ levels in liver” value (CD38 [1]; [5]) is reported as “increase” and the “NAM levels in liver” value (CD38 [1]; [5]) is reported as “decrease”. For the same molecule, the “NMN levels in liver” value (CD38 [1]; [5]) was “increase”, the “ADPR levels in liver” value (CD38 [2]; 10 mg/kg BID oral) was “decrease” and the “NAD+ levels in liver” value (CD38 [2]; 10 mg/kg BID oral) was “increase”. For the same molecule, the “NAM levels in liver” value (CD38 [2]; 10 mg/kg BID oral) was “decrease”, the “ADPR levels in liver” value (CD38 [3]) was “decrease” and the “NAD+ levels in liver” value (CD38 [3]) was “significantly increase”. For the same molecule, the “NAM levels in liver” value (CD38 [3]) was “decrease” and the “NMN levels in liver” value (CD38 [3]) was “significantly increase”.
